Assay results as given in the supplement of paper PMC13380429.

Legend:
Settings in all cases: 72 h
HepG2 [1] = assay: drug sensitivity score (DSS) for viability; higher = more toxic; extreme values may be limits of the assay
Vero E6 [2] = assay: as above
Calu-3 [3] = assay: as above
U2OS [4] = assay: as above
Caco-2 [5] = assay: as above
HepG2 [6] = assay: relative viability EC50 (midpoint between 100% and the lowest measured viability); higher = less toxic
Vero E6 [7] = assay: as above
Calu-3 [8] = assay: as above
U2OS [9] = assay: as above
Caco-2 [10] = assay: as above
HepG2 [11] = assay: cell viability relative to DMSO; higher = less toxic
Vero E6 [12] = assay: as above
Calu-3 [13] = assay: as above
U2OS [14] = assay: as above
Caco-2 [15] = assay: as above

| SMILES | drug sensitivity score (HepG2 [1]) | drug sensitivity score (Vero E6 [2]) | drug sensitivity score (Calu-3 [3]) | drug sensitivity score (U2OS [4]) | drug sensitivity score (Caco-2 [5]) | relative viability EC50 (HepG2 [6]) [µM] | relative viability EC50 (Vero E6 [7]) [µM] | relative viability EC50 (Calu-3 [8]) [µM] | relative viability EC50 (U2OS [9]) [µM] | relative viability EC50 (Caco-2 [10]) [µM] | cell viability (HepG2 [11]; 1 nM) [%] | cell viability (HepG2 [11]; 10 nM) [%] | cell viability (HepG2 [11]; 100 nM) [%] | cell viability (HepG2 [11]; 1000 nM) [%] | cell viability (HepG2 [11]; 10000 nM) [%] | cell viability (Vero E6 [12]; 1 nM) [%] | cell viability (Vero E6 [12]; 10 nM) [%] | cell viability (Vero E6 [12]; 100 nM) [%] | cell viability (Vero E6 [12]; 1000 nM) [%] | cell viability (Vero E6 [12]; 10000 nM) [%] | cell viability (Calu-3 [13]; 1 nM) [%] | cell viability (Calu-3 [13]; 10 nM) [%] | cell viability (Calu-3 [13]; 100 nM) [%] | cell viability (Calu-3 [13]; 1000 nM) [%] | cell viability (Calu-3 [13]; 10000 nM) [%] | cell viability (U2OS [14]; 1 nM) [%] | cell viability (U2OS [14]; 10 nM) [%] | cell viability (U2OS [14]; 100 nM) [%] | cell viability (U2OS [14]; 1000 nM) [%] | cell viability (U2OS [14]; 10000 nM) [%] | cell viability (Caco-2 [15]; 1 nM) [%] | cell viability (Caco-2 [15]; 10 nM) [%] | cell viability (Caco-2 [15]; 100 nM) [%] | cell viability (Caco-2 [15]; 1000 nM) [%] | cell viability (Caco-2 [15]; 10000 nM) [%] |
| --- | --- | --- | --- | --- | --- | --- | --- | --- | --- | --- | --- | --- | --- | --- | --- | --- | --- | --- | --- | --- | --- | --- | --- | --- | --- | --- | --- | --- | --- | --- | --- | --- | --- | --- | --- |
| CN(C)CCOC(=O)COc1ccc(Cl)cc1 [meclofenoxate] | 0 | 0 | 0 | 0 | 0 | > 10 | > 10 | > 10 | > 10 | > 10 | 92.2 | 93.8 | 105 | 94.4 | 108 | 95.5 | 93.4 | 95.3 | 92.8 | 111 | 98 | 95.8 | 87.8 | 106 | 106 | 92.5 | 99.7 | 97.3 | 98.3 | 103 | 94.5 | 98.1 | 96.2 | 97.4 | 99.5 |
| COc1ccc(Cl)cc1C(=O)NCCc1ccc(C(=O)O)cc1 [meglitinide] | 0.3 | 0 | 0 | 0 | 0 | > 10 | > 10 | > 10 | > 10 | > 10 | 109 | 106 | 110 | 88.7 | 94.2 | 98.4 | 105 | 100 | 104 | 103 | 108 | 103 | 98.1 | 96.8 | 114 | 101 | 98.2 | 98.6 | 93.4 | 99.6 | 90.9 | 102 | 94.8 | 91.5 | 98.1 |
| CSCC[C@H](NC(=O)[C@H](Cc1ccccc1)NC(=O)CNC(=O)CNC(=O)[C@@H](N)Cc1ccc(O)cc1)C(=O)O [metenkephalin] | 0 | 0 | 0 | 0 | 0 | > 10 | > 10 | > 10 | > 10 | > 10 | 96.6 | 99 | 91 | 115 | 107 | 93.8 | 96.5 | 96.7 | 98.4 | 108 | 102 | 99.7 | 105 | 94.3 | 101 | 103 | 97.1 | 102 | 102 | 102 | 94.7 | 94.9 | 100 | 96.4 | 97.2 |
| Cc1[nH]c(=O)c(C#N)cc1-c1ccncc1 [milrinone] | 0 | 0 | 0 | 0 | 0.9 | > 10 | > 10 | > 10 | > 10 | > 10 | 102 | 101 | 98.3 | 96.2 | 106 | 95.6 | 101 | 95.3 | 97.6 | 94.5 | 95.3 | 89.1 | 99.5 | 108 | 101 | 103 | 95.6 | 99.9 | 97.7 | 100 | 100 | 98.4 | 103 | 87.5 | 85.9 |
| CCOC(=O)[N-]c1c[n+](N2CCOCC2)no1 [molsidomine] | 0 | 0 | 0.1 | 0 | 0 | > 10 | > 10 | > 10 | > 10 | > 10 | 87.6 | 95.4 | 97.8 | 106 | 107 | 92.1 | 99.7 | 95.5 | 96.4 | 109 | 95.8 | 88.6 | 91.6 | 91.8 | 89.4 | 99.3 | 97.6 | 104 | 99.8 | 102 | 94.4 | 96.5 | 106 | 95.1 | 104 |
| CC1CCc2c(N3CCC(O)CC3)c(F)cc3c(=O)c(C(=O)O)cn1c23 (stereo not given) [nadifloxacin] | 0 | 0 | 0 | 0 | 0 | > 10 | > 10 | > 10 | > 10 | > 10 | 97 | 111 | 108 | 103 | 107 | 94.5 | 100 | 97.9 | 95.7 | 106 | 97.6 | 96.4 | 102 | 105 | 107 | 98.9 | 97.5 | 98.6 | 96.1 | 106 | 104 | 92.1 | 94.7 | 114 | 96.2 |
| c1ccc2c(CC3=NCCN3)cccc2c1 [naphazoline] | 0 | 0 | 0 | 0 | 0 | > 10 | > 10 | > 10 | > 10 | > 10 | 96.1 | 102 | 102 | 98.4 | 118 | 102 | 99.4 | 95.5 | 97.7 | 93.3 | 93.6 | 93.6 | 109 | 107 | 89 | 97 | 101 | 94.9 | 97.8 | 93.9 | 95.6 | 102 | 90.1 | 101 | 93.2 |
| C[C@@H]1O[C@@H](O[C@H]2[C@H](Oc3cc(O)c(C(=O)CCc4ccc(O)cc4)c(O)c3)O[C@H](CO)[C@@H](O)[C@@H]2O)[C@H](O)[C@H](O)[C@H]1O [naringin-dihydrochalcone] | 0 | 0 | 0 | 0 | 0 | > 10 | > 10 | > 10 | > 10 | > 10 | 110 | 93.2 | 105 | 90.9 | 101 | 104 | 104 | 104 | 102 | 99.9 | 95.6 | 90.9 | 92.7 | 101 | 105 | 93.1 | 96.2 | 94.2 | 102 | 95.6 | 94.2 | 92.2 | 99.5 | 102 | 96.3 |
| COC(=O)c1ccc2c(c1)NC(=O)/C2=C(\Nc1ccc(N(C)C(=O)CN2CCN(C)CC2)cc1)c1ccccc1 [nintedanib] | 1.5 | 0 | 0 | 0 | 0 | > 10 | > 10 | > 10 | > 10 | > 10 | 98.9 | 101 | 103 | 91.2 | 80.3 | 110 | 102 | 106 | 100 | 98.5 | 106 | 98 | 102 | 101 | 90.4 | 101 | 101 | 97.1 | 104 | 94 | 93.1 | 108 | 102 | 94.7 | 107 |
| COc1ccc2[nH]c(SCc3ncc(C)c(OC)c3C)nc2c1 [omeprazole-sulfide] | 0 | 0 | 0 | 0 | 0 | > 10 | > 10 | > 10 | > 10 | > 10 | 105 | 99.6 | 99 | 94.4 | 102 | 106 | 89.6 | 87.8 | 94.9 | 95.7 | 89.7 | 102 | 101 | 103 | 90.6 | 96.8 | 97.8 | 96.5 | 102 | 96.8 | 104 | 96.1 | 113 | 96 | 101 |
| CNC(=O)c1ccc2cc([C@@]3(O)CCn4cncc43)ccc2c1 [orteronel] | 0 | 0 | 0 | 0 | 0 | > 10 | > 10 | > 10 | > 10 | > 10 | 103 | 104 | 90.1 | 104 | 90 | 99.7 | 104 | 99.8 | 100 | 94.6 | 102 | 108 | 99.4 | 105 | 108 | 99.8 | 99 | 101 | 99 | 98.9 | 88.1 | 91.3 | 94.2 | 99.8 | 96.6 |
| NCCc1cc(O)c(O)cc1O [oxidopamine] | 0 | 0 | 0 | 0 | 0 | > 10 | > 10 | > 10 | > 10 | > 10 | 97.4 | 104 | 114 | 107 | 98.7 | 97.3 | 99.6 | 96.6 | 91.5 | 105 | 91.1 | 101 | 108 | 108 | 109 | 96 | 102 | 94.8 | 104 | 103 | 86.7 | 93.3 | 90.7 | 95.4 | 100 |
